Measured values: US12157713B2, “Conjugated oligoelectrolytes as antimicrobial agents” (Nanyang Technological University, priority 2018, dated 2024)
Read-outs that look alike come from different tables or passages of the source.

What was measured:
[1] = test system: Cryptococcus neoformans var. grubii H99; ATCC 208821; experiment: Single-dose growth inhibition, Cn; assay type: cell-based
Procedure: Growth inhibition of C. albicans was determined by measuring the absorbance at 530 nm (OD530), while the growth inhibition of C. neoformans was determined by measuring the difference in absorbance between 600 and 570 nm (OD600-570), after the addition of resazurin (0.001 wt. % final concentration) and incubation at 35° C. for additional 2 hrs. The absorbance was measured using a Biotek Synergy HTX plate reader. The relative growth inhibition was calculated for each well, relative to that determined from a negative control (media only) and positive control (bacteria without inhibitors) on the same plate as references. A single dose of 32 μg/mL of COE (final concentration) was used for each test.
(§1) Percentage growth inhibition of an individual sample was calculated based on growth in a reference well determined from negative controls (media only) and positive controls (bacterial/fungal media without inhibitors). Negative inhibition values indicate that the growth rate (or OD600) is higher compared to the reference growth (bacteria/fungi only, set to 0% inhibition). The growth rates for all bacteria and fungi may vary at −/+10%, which were within the reported normal distribution of bacterial/fungal growth. Any significant variations (or outliers/hits) were identified by the modified Z-Score, and the active compounds were selected by a combination of inhibition values and Z-Score.
(§2) A M(i) value of >|2.5| (absolute) would classify the sample as outliers or hits. Active samples were denoted as compounds with inhibition values equal to or above 80% and absolute Z-Score above |2.5| for either replicate (n=2 on different plates). Partial active samples were denoted as compounds with inhibition values from 50% to <80%, or absolute Z-Score below |2.5|.

[2] = test system: organism classes (Gram-negative, Gram-positive and fungi); experiment: Single-dose screening summary by organism class; assay type: cell-based; details: 32 μg/mL; 0 = no activity
Procedure: as §1
Z-Score analysis was carried out to investigate outliers or hits among the samples. The Z-Score was calculated based on the sample population using a modified Z-Score method which accounts for possible skewed sample population. The modified method uses median and MAD ([…]) instead of average and standard deviation, and a scaling factor (Iglewicz, B. & Hoaglin, D. C. Volume 16: How to Detect and Handle Outliers. The ASQC Basic Reference in Quality Control: Statistical Techniques, 1993). The equation to calculate the modified Z-Score value is as follow: […]
as §2

E. coli K12 = experiment: MIC by broth microdilution against E. coli K12; assay type: cell-based; details: Escherichia coli
Procedure: The respective minimum inhibition concentration (MIC) of each COE molecule was determined using a broth microdilution method. Briefly, COEs were diluted via a 2-fold dilution series in 100 μL of either Muller Hinton Broth (MHB) for E. coli and S. aureus or Brain Heart Infusion Broth (BHI) for E. faecalis in a 96-well plate to achieve the desired final concentration. Subsequently, each well was inoculated with 100 μL of 1×10^6 colony forming units (CFU) mL^−1 of the respective microorganism in MHB for E. coli or BHI for E. faecalis to achieve an inoculum density of 5×10^5 CFU mL^−1. The plates were then incubated at 37° C. with shaking (200 rpm) for 18 hrs. […] The results were obtained in triplicate.
The MIC values of COE-D4, COE-D6 and COE-D8 against the reference strain E. coli K12, pathogenic E. coli UT189, and the Gram positive pathogen Enterococcus faecalis OG1RF were determined using a broth microdilution method as described in the general method above. The MICs for E. coli K12 were determined to be 128, 16, and 4 μg mL^−1 for COE-D4, COE-D6, and COE-D8, respectively (FIG. 5a). […] This is not surprising as these two organisms differ in the capsular polysaccharides that they expressed, which are known to hinder the uptake of antimicrobials and mitigate their potency (M. A. Campos, et al., Infect. Immun. 2004, 72, 7107-7114). A K-type capsid comprising α2-8-linked sialic acid is excreted by UT189 and is known to be an important virulence factor for this organism (C. Whitfield, et al., Mol. Microbiol. 1999, 31, 1307-1319; G. G. Anderson, et al., Infect. Immun. 2010, 78, 963-975).

[3] = test system: Acinetobacter baumannii ATCC 19606; experiment: Single-dose growth inhibition, Ab; assay type: cell-based
Procedure: (§3) Inhibition of bacterial growth was determined by measuring the absorbance at 600 nm (OD600), using a Tecan M1000 Pro monochromator plate reader. Growth inhibition was calculated for each well, relative to the reference growths determined from a negative control (media only) and positive control (bacteria without inhibitors) incubated in the same plate. A single dose of 32 μg/mL of COE (final concentration) was used for each test.
as §1, §2

[4] = DSC of treated unilamellar vesicles; details: POPE:POPG 85:15 vesicles
Procedure: POPE (1-palmitoyl-2-oleoyl-phosphatidylethanolamine) and POPG (1-palmitoyl-2-oleoyl-phosphatidylglycerol) were purchased as chloroform stocks from Avanti Polar Lipids. POPE and POPG were mixed to a molar ratio of 85:15 and dried under a gentle stream of nitrogen. The lipid cake obtained was further desiccated for overnight to obtain a thin lipid film. Rehydration of the dried film was carried out by adding 25 mM Tris, 150 mM NaCl, pH 7.5, to a concentration of 4.3 mg/mL, followed by incubation at 45° C. for 2 hrs, under constant stirring using a magnetic stirrer at around 300 rpm. To prepare the unilamellar vesicles, the vesicles suspension was repeatedly extruded through a polycarbonate membrane of 100 nm pores (21 times) at 45° C. The extruded vesicle sample was kept at 4° C. till further use. The vesicle solution was diluted to 0.86 mg/mL with buffer (25 mM Tris, 150 mM NaCl, pH 7.5) or the COE solution (25 mM Tris, 150 mM NaCl, pH 7.5) before the DSC measurements.
Unilamellar vesicles composed of 1-palmitoyl-2-oleoylphosphatidylethanolamine (POPE) and 1-palmitoyl-2-oleoylphosphatidylglycero (POPG) in a molar ratio of 85:15 were prepared in accordance to the general method “Preparation of Small Unilamellar Vesicles” and were used as a generic bacterial model membrane (G. J. Gabriel, et al., Mater. Sci. Eng. R 2007, 57, 28-64).
When subjected to DSC, the main gel-to-liquid-crystal transition peaks broadened after incubation with 8 μg mL^−1 of COE-D8 (FIG. 7a). For COE-D6, a higher concentration (16 μg mL^−1) was needed to change the initial trace (FIG. 7b). […] The perturbation to the cooperative transition of the lamellar phase reflects varying degrees of membrane intercalation. This observation correlates well with solubility and the alkyl chain length (Table 1a). Due to its lower aqueous solubility, COE-D8 is likely to partition more readily into hydrophobic domains of the lipid bilayer, leading to the weakened phase transition observed in the vesicles.

[5] = test system: Pseudomonas aeruginosa ATCC 27853; experiment: Single-dose growth inhibition, Pa; assay type: cell-based
Procedure: as §3, §1, §2

[6] = ATCC208821, read-out: Growth inhibition Cn
[7] = K12, 18 h, read-out: MIC against E. coli K12
[8] = K12, read-out: MIC against E. coli K12
[9] = K12, read-out: MICeff (MIC×U %)
[10] = ATCC19606, read-out: Growth inhibition Ab
[11] = ATCC27853, read-out: Growth inhibition Pa
[12] = ATCC208821, 32 μg/mL single dose, n=2, read-out: Growth inhibition Cn
[13] = K12, broth microdilution, MHB, 18 hrs, read-out: MIC against E. coli K12
[14] = ATCC19606, 32 μg/mL single dose, n=2, read-out: Growth inhibition Ab
[15] = ATCC27853, 32 μg/mL single dose, n=2, read-out: Growth inhibition Pa

| SMILES | inhibition at 32 µg/mL [1, 6] [%] | Activity: number of organism classes the compound has been found active against [2] | MIC (E. coli K12; [7]) [µg/mL] | MIC (E. coli K12; [8]) [µg/mL] | MIC (E. coli K12; [9]) [µg/mL] | inhibition at 32 µg/mL [3, 10] [%] | Concentration needed to change the gel-to-liquid-crystal transition peak (DSC) [4] [µg/mL] | inhibition at 32 µg/mL [5, 11] [%] | inhibition at 32 µg/mL [1, 12] [%] | MIC (E. coli K12; [13]) [µg/mL] | inhibition at 32 µg/mL [3, 14] [%] | inhibition at 32 µg/mL [5, 15] [%] |
| --- | --- | --- | --- | --- | --- | --- | --- | --- | --- | --- | --- | --- |
| C[N+](C)(C)CCCCOc1ccc(/C=C/c2ccc(OCCCC[N+](C)(C)C)cc2)cc1 [COE-D4] | > 80 | 2 | 128 | 128 | 3.8 | < 50 | > 32 | < 50 |  |  |  |  |
| C[N+](C)(C)CCCCCCOc1ccc(/C=C/c2ccc(OCCCCCC[N+](C)(C)C)cc2)cc1 [COE-D6] | > 80 | 3 | 16 | 16 | 2.6 | < 50 | 16 | < 50 |  |  |  |  |
| C[N+](C)(C)CCCCCCCCOc1ccc(/C=C/c2ccc(OCCCCCCCC[N+](C)(C)C)cc2)cc1 [COE-D8] | > 80 | 3 | 4 | 4 | 2.9 | > 80 | 8 | 50 to 80 |  |  |  |  |
| CN(C)CC[N+](C)(C)CCCCCCOc1ccc(/C=C/c2ccc(OCCCCCC[N+](C)(C)CCN(C)C)cc2)cc1 [COE-D62N] |  | 3 |  |  |  |  |  |  | > 80 | 8 | > 80 | < 50 |
| CN(C)CC[N+](C)(C)CCCCCCCCOc1ccc(/C=C/c2ccc(OCCCCCCCC[N+](C)(C)CCN(C)C)cc2)cc1 [COE-D82N] |  | 3 |  |  |  |  |  |  | > 80 | 8 | > 80 | 50 to 80 |
